Drawing on patent EP4653444A1, “FUSED TRICYCLIC COMPOUND AS KINASE INHIBITOR” (Hangzhou Innogate Pharma Co., Ltd., priority 2023, dated 2024), this text covers IC50 for 2 molecules.

pIC50: −log10 of the molar value. Read-outs that look alike come from different tables or passages of the source.

Broadly, the pIC50 is the IC50 on a negative log10 scale, so that one unit is a factor of ten.

In the test the target is T1, AXL (Homo sapiens, UniProt P30530).
T1 sequence (P30530 26-894): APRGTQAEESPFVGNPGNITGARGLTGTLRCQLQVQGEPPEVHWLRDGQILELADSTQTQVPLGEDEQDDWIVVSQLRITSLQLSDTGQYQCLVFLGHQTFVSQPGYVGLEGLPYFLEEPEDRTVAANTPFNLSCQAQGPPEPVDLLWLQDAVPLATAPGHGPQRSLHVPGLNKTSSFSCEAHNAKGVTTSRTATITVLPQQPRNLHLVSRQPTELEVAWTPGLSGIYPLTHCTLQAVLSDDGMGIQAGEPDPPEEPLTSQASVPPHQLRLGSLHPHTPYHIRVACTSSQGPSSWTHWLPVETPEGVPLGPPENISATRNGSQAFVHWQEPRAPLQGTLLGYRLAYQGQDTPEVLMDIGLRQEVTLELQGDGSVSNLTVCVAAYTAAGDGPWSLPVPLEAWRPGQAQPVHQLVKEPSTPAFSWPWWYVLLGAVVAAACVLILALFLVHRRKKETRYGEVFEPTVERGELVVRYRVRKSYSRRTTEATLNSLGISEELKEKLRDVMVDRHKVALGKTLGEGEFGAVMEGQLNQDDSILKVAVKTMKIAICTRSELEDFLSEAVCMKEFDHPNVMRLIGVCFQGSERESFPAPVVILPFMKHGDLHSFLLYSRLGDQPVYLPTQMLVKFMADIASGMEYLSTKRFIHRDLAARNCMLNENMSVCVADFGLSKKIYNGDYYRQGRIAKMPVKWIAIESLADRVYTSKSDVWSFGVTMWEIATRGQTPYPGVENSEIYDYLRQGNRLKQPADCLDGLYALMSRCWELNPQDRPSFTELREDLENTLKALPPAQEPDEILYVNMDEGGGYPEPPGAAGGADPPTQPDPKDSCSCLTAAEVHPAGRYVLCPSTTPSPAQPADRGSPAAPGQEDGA
In words: AXL kinase activity inhibition assay (Mobility shift assay). The format is biochemical. Here is the method:
Testing compound inhibitory activity against FLT3 and AXL kinases using Mobility shift assay. Compounds were dissolved in 100% DMSO to prepare 10 mM stock solutions. Prepare 1× Kinase Buffer. Test compounds were serially diluted in 5-fold gradients, and 250 nL of 100× final concentration compounds were transferred to destination plate 3573 using an Echo 550 liquid handler. A 2.5× final concentration kinase solution was prepared in 1× Kinase Buffer. Then, 10 µL of the 2.5× kinase solution was added to both compound wells and positive control wells, while 10 µL of 1× Kinase Buffer was added to negative control wells. The plate was centrifuged at 1000 rpm for 30 seconds, mixed by orbital shaking, and incubated at room temperature for 10 minutes. A 5/3× final concentration mixture of ATP and Kinase Substrate 25 was prepared in 1× Kinase Buffer. The reaction was initiated by adding 15 µL of the 5/3× ATP/substrate mixture. […] Conversion rates were measured using a Caliper EZ Reader. %Inhibition = (Conversion%_max - Conversion%_sample)/(Conversion%_max - Conversion%_min) × 100. Where: Conversion%_sample: Conversion rate reading of test samples; Conversion%_min: Mean value of negative control wells (representing conversion rate without enzyme activity); Conversion%_max: Mean value of positive control wells (representing conversion rate without compound inhibition). […]

Regarding `COc1cc2c(cc1Nc1ncc(Cl)c(Nc3ccccc3S(=O)(=O)C(C)C)n1)OC[C@@H]1CN(C3CCOCC3)CCN21` [Compound C1S], where the note is “Table 3, read-out: AXL (IC50)”, the negative-log IC50 (pIC50) is more than 7.52. Take `COc1cc2c(cc1Nc1ncc(Cl)c(Nc3ccccc3S(=O)(=O)C(C)C)n1)OC[C@@H]1CN(C3CCN(C)CC3)CCN21` [Compound C2S]: the pIC50 is more than 7.52.
